Assay [1] deals with MCF-10A. Briefly: Inhibition of MPC in human MCF-10A cells assessed as lactate concentration at 10 uM measured for 36 hrs. The class given is cell-based.
Assay [2] relates to MCF-10A. Briefly: Inhibition of MPC in human MCF-10A cells assessed as cellular lactate production measured per 10^6 cells at 10 uM measured for 36 hrs. The class given is cell-based.
The subject of assay [3] is MCF-10A. Briefly: Inhibition of MPC in human MCF-10A cells assessed as cellular lactate production measured per 10^6 cells measured for 36 hrs. The settings on record: dose 10.0 µM. The class given is cell-based.
Assay [4] is filed under the species Mus musculus. Kind of assay: Induction of hair growth in C57BL/6J mouse assessed as appearance of hair growth patches measured on day 17. The class given is functional, organism-based. The settings on record: time 17.0 day.
The species entered for assay [5] is Mus musculus. Briefly: Induction of hair growth in C57BL/6J mouse assessed as increase in pigmentation measured after 10 days. The class given is functional, organism-based. The settings on record: time 10.0 day.

Activity calls are given as the source filed them. The rule behind the calls is not given here.

For `CCOC(=O)/C(C#N)=C/c1cn(Cc2cccnc2)c2ccccc12`, the Activity is 0.874 µmol/mL with MCF-10A [1] and 0.208 µmol with MCF-10A [2].

In the case of `Cn1cnc(-n2cc(/C=C(\C#N)C(=O)O)c3ccccc32)c1`, the Activity in the assay on MCF-10A [1] is -0.003 µmol/mL; in the assay with MCF-10A [2], -0.001 µmol.

As to `CCOC(=O)/C(C#N)=C/c1cn(-c2ncccn2)c2ccccc12`, the Activity in the assay on MCF-10A [1] was 0.342 µmol/mL; with MCF-10A [2], 0.081 µmol.

`CCOC(=O)/C(C#N)=C/c1cn(Cc2ccc3ccccc3c2)c2ccccc12`: the values for the Activity in the assay with MCF-10A [1] and in the assay on MCF-10A [2] were 0.268 µmol/mL and 0.064 µmol, respectively.

Turning to `N#C/C(=C\c1cn(-c2cccnc2)c2ccccc12)C(=O)O`, the Activity in the assay on MCF-10A [1] is 0.251 µmol/mL; in the assay with MCF-10A [2], 0.06 µmol.

Regarding `CCOC(=O)/C(C#N)=C/c1cn(-c2cncnc2)c2ccccc12`, the Activity in the assay on MCF-10A [1] was found to be 0.025 µmol/mL; with MCF-10A [2] it was 0.006 µmol.

On to `CCOC(=O)/C(C#N)=C/c1cn(-c2cn(C)cn2)c2ccccc12`, for which the Activity was found to be 0.64 µmol/mL in the assay with MCF-10A [1] and 0.152 µmol in the assay on MCF-10A [2].

Take `N#C/C(=C\c1cn(-c2ccccc2)c2ccccc12)C(=O)O`: the figures for the Activity in the assay on MCF-10A [1], in the assay with MCF-10A [2] and in the assay with MCF-10A [3] were 0.778 µmol/mL, 0.185 µmol and “Dose-dependent-effect”, respectively. Moreover, in the assay filed under Mus musculus [4], the result was Active.

With `CCOC(=O)/C(C#N)=C/c1cn(Cc2ccccn2)c2ccccc12`, the figures for the Activity in the assay with MCF-10A [1] and in the assay with MCF-10A [2] were -0.128 µmol/mL and -0.03 µmol, respectively.

Turning to `CCOC(=O)/C(C#N)=C/c1cn(-c2ccccn2)c2ccccc12`, the Activity with MCF-10A [1] came out at 0.625 µmol/mL; with MCF-10A [2], 0.148 µmol.

On to `CCOC(=O)/C(C#N)=C/c1cn(-c2ccncc2)c2ccccc12`, for which the results for the Activity with MCF-10A [1] and with MCF-10A [2] were 0.025 µmol/mL and 0.006 µmol, respectively.

With `CCOC(=O)/C(C#N)=C/c1cn(Cc2ccncc2)c2ccccc12`, the Activity in the assay on MCF-10A [1] was -0.02 µmol/mL; in the assay with MCF-10A [2], -0.005 µmol.

Take `N#C/C(=C\c1cn(-c2ccccn2)c2ccccc12)C(=O)O`: the results for the Activity in the assay with MCF-10A [1] and in the assay with MCF-10A [2] were 0.489 µmol/mL and 0.116 µmol, respectively.

Regarding `CCOC(=O)/C(C#N)=C/c1cn(-c2cccnc2)c2ccccc12`, the Activity in the assay with MCF-10A [1] worked out at 0.138 µmol/mL; in the assay with MCF-10A [2], 0.033 µmol.

For the compound `N#C/C(=C\c1cn(-c2ccc3ccccc3c2)c2ccccc12)C(=O)O`, the Activity in the assay with MCF-10A [1] was determined as 0.517 µmol/mL; in the assay with MCF-10A [2] it was 0.123 µmol.

`N#C/C(=C\c1cn(Cc2ccncc2)c2ccccc12)C(=O)O`: the Activity was -0.337 µmol/mL in the assay with MCF-10A [1] and -0.08 µmol with MCF-10A [2].

In the case of `N#C/C(=C\c1cn(Cc2ccccn2)c2ccccc12)C(=O)O`, the Activity with MCF-10A [1] was 1.35 µmol/mL; in the assay on MCF-10A [2], 0.322 µmol; in the assay filed under Mus musculus [5], “Active; Drug Entered To Anagen Phase”. The outcome in the assay listed under Mus musculus [4] was Active.

`N#C/C(=C\c1cn(-c2ccncc2)c2ccccc12)C(=O)O`: the Activity with MCF-10A [1] worked out at 0.059 µmol/mL; in the assay on MCF-10A [2], 0.014 µmol.

For the compound `N#C/C(=C\c1cn(-c2cncnc2)c2ccccc12)C(=O)O`, the Activity in the assay with MCF-10A [1] worked out at 0.546 µmol/mL; in the assay with MCF-10A [2], 0.13 µmol.

Regarding `N#C/C(=C\c1cn(-c2ncccn2)c2ccccc12)C(=O)O`, the figures for the Activity with MCF-10A [1] and in the assay with MCF-10A [2] were 0.421 µmol/mL and 0.1 µmol, respectively.

For `N#C/C(=C\c1cn(Cc2cccnc2)c2ccccc12)C(=O)O`, the Activity with MCF-10A [1] was 0.393 µmol/mL; with MCF-10A [2] it was 0.093 µmol.

As to `N#C/C(=C\c1cn(Cc2ccc3ccccc3c2)c2ccccc12)C(=O)O`, the Activity in the assay with MCF-10A [1] is 1.23 µmol/mL; in the assay on MCF-10A [2], 0.292 µmol.

On to `CCOC(=O)/C(C#N)=C/c1cn(-c2ccc3ccccc3c2)c2ccccc12`, for which the Activity in the assay with MCF-10A [1] was 0.438 µmol/mL; with MCF-10A [2] it was 0.104 µmol.

The record behind these values is ChEMBL document CHEMBL6092124, “Design, synthesis and biological evaluation of novel cyano-cinnamate derivatives as mitochondrial pyruvate carrier inhibitors” (Bioorg Med Chem Lett, 2024).
